Measured values taken from patent publication US20060269928A1, “Compositions, methods and apparatus for supercritical fluid virus inactivation” (Aphios Corporation, priority 2005, published 2006).
Values joined by “and” are separate entries in the source; they are usually repeats but may differ in a detail not shown here. Equal values may be shown once. Read-outs that look alike come from different tables or passages of the source. Marks after values point to notes of the source that are not given here.

How the values were obtained:
HIV-1Δtat-rev = conditions: 3,000 psig, 22 °C, single-stage; for −Log10 Inactivation: versus time and temperature control; for Log10 TCID50/ml (CFI-treated): virus supernatant diluted 1:10 in RPMI
HIV-1 p24 = conditions: 3,000 psig, 22 °C, single-stage; for Δp24 [% Change]: versus t & T control
[1] = test system: vesicular stomatitis virus (VSV); format: cell-based; conditions: for −log10 Kill: 3,000 psig, 50 °C, single stage, matrix FBS; for −log10 reduction: 4,000 psig, <1 min
[2] = test system: encephalomyocarditis (EMC) virus; format: cell-based
Human Adenovirus, Type 5 = format: cell-based
Poliovirus = format: cell-based; conditions: 3,000 psig, 50 °C, single stage, matrix FBS
Hepatitis A (HAV) virus = format: cell-based
Reovirus = format: cell-based
Sindbis = format: cell-based
TGE = format: cell-based
[3] = test system: Bovine Diarrhea Virus (BVD); format: cell-based
parvovirus B19 [4] = test: B19 DNA titre of CFI-treated plasma samples; parameters: species or system human parvovirus B19; conditions: 206 bars, 4 ml/min
Method: The conditions of different experiments performed for NIBSC, London, England with parvovirus B19-spiked in human plasma samples free of B19 antibodies are recorded in Table 16. […] Five or six samples were produced in each of the six experiments. A 2.5 ml aliquot of the feed was taken at the start of the treatment and stored at 4° C. during the run (named “before”) and a second 2.5 ml sample was placed at the same temperature as the SCoNCF system for the same duration as a control (named “time and temperature”). Once the system (isobaric chamber, connecting lines, valves and gauges) was pressurized with the supercritical fluid, the sample was pumped through the isobaric chamber at the rate of 4 ml/min. […] Finally, the system was depressurized to atmospheric pressure (1.01 bars).

parvovirus B19 [5] = test: B19 infectivity assay of CFI-treated plasma samples; format: cell-based, human parvovirus B19; conditions: 206 bars; for Infectious Units per ml, CFI-Treated Samples: 4 ml/min
[6] = test system: murine leukemia virus (MuLV); test: SCoNCF CFI inactivation of murine leukemia virus in laminar flow injection unit; format: cell-based, murine-C retrovirus (MuLV); conditions: 2,000 psig, 22 °C, <1 min
[7] = Expt 01: 50 °C, 2 stages, human plasma
[8] = Expt 02/04: 25 °C, 1 stage, volumetric average of two samples

CCC [C3H8, Propane]
−Log10 Inactivation (HIV-1Δtat-rev): 0.9
Log10 TCID50/ml (CFI-treated) (HIV-1Δtat-rev): 4.1
p24 [CFI-treated] (HIV-1 p24): 175 ng/mL
Δp24 [% Change] (HIV-1 p24): +20%

O=C=O [CO2, carbon dioxide]
−Log10 Inactivation (HIV-1Δtat-rev): >3.7
Log10 TCID50/ml (CFI-treated) (HIV-1Δtat-rev): undetected
p24 [CFI-treated] (HIV-1 p24): 15 ng/mL
Δp24 [% Change] (HIV-1 p24): +7%

FC(F)Cl [FREON-22, hydrodifluorochloromethane]
−log10 Kill [1]: >6.5 and >6.6
−log10 Kill ([1]; listed as Freon-22): > 6.6 and > 6.5
EMC inactivated on the average [2]: ~6 logs
EMC inactivation on the average [2]: 5.7 logs
increase of inactivation for every 10 °C increase in temperature [2]: ~1 log
−log10 Kill (Human Adenovirus, Type 5): >5.3 and >5.1
−log10 Kill (Poliovirus): 4.1 and 4.2
−log10 Kill (Poliovirus; listed as Freon-22): 4.1 and 4.2
−log10 Kill (Hepatitis A (HAV) virus): 1.3 and 1.0
−log10 Kill (Reovirus): 0.9 and 1.0
−log10 Kill (Sindbis): >6.5
−log10 Kill (TGE): >2.5 and >2.6
−log10 Kill [3]: 2.3
B19 DNA Titre (IU/ml), CFI-Treated Samples (parvovirus B19 [4]; [7]): 5 × 10^10 IU/ml
B19 DNA Titre (IU/ml), CFI-Treated Samples (parvovirus B19 [4]; [8]): 2 × 10^11* IU/ml
change in infectivity titer compared with the untreated sample (parvovirus B19 [5]; 50 °C, two-stage laminar flow CFI unit): ~2 log10
Infectious Units per ml, CFI-Treated Samples (parvovirus B19 [5]; [7]): 5 × 10^3 Infectious Units per ml
Infectious Units per ml, CFI-Treated Samples (parvovirus B19 [5]; [8]): 2 × 10^5* Infectious Units per ml
−Log10 Inactivation (HIV-1Δtat-rev): >5.1
Log10 TCID50/ml (CFI-treated) (HIV-1Δtat-rev): undetected
p24 [CFI-treated] (HIV-1 p24): 112 ng/mL
Δp24 [% Change] (HIV-1 p24): −7%

FC(F)F [Fr-23, trifluoromethane]
EMC inactivated on the average [2]: ~3 logs
B19 DNA Titre (IU/ml), CFI-Treated Samples (parvovirus B19 [4]; [8]): 2.5 × 10^10* IU/ml
Infectious Units per ml, CFI-Treated Samples (parvovirus B19 [5]; [8]): 1.7 × 10^6* Infectious Units per ml
−Log10 Inactivation (HIV-1Δtat-rev): >3.7
Log10 TCID50/ml (CFI-treated) (HIV-1Δtat-rev): undetected
p24 [CFI-treated] (HIV-1 p24): 20 ng/mL
Δp24 [% Change] (HIV-1 p24): +43%

FC(Cl)C(F)(F)F (stereo not drawn) [Fr-124]
−log10 Kill [2]: 0.5 and 0.4

N#N [N2]
−Log10 Inactivation (HIV-1Δtat-rev): >5.1
Log10 TCID50/ml (CFI-treated) (HIV-1Δtat-rev): undetected
p24 [CFI-treated] (HIV-1 p24): 143 ng/mL
Δp24 [% Change] (HIV-1 p24): +34%

[N-]=[N+]=O [NITROUS OXIDE, nitrous oxide]
−log10 reduction ([6]; 1 stage): 2.3 and 2.0
−log10 reduction ([6]; 1 stage, listed as nitrous oxide): about 2
−log10 reduction ([6]; 2 stages): >5.5
−log10 reduction ([6]; 2 stages, listed as nitrous oxide): greater than 5.5
−log10 reduction ([1]; 40 °C, 1 stage): 2.5
−log10 reduction ([1]; 40 °C, 2 stages): >5.5
inactivation ([1]; 5,000 psig, 22 °C): ~2 logs
average inactivation ([1]; 5,000 psig, 40 °C): 4 logs
−Log10 Inactivation (HIV-1Δtat-rev): >2.8
Log10 TCID50/ml (CFI-treated) (HIV-1Δtat-rev): undetected
p24 [CFI-treated] (HIV-1 p24): 70 ng/mL
Δp24 [% Change] (HIV-1 p24): +25%
